Assay results reported in the supplement of paper PMC6004109.

Tests used:
Details in all cases: temperature: 37 °C
[1] = tested on: Saccharomyces cerevisiae ZIM 2247 (RPMI); test: FICI minimum (fractional inhibitory concentration index, Loewe) (dimensionless); higher = less synergy / more antagonism
Protocol: (§1)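 CLSI M27-A3 checkerboard broth microdilution of an immunomodulatory drug (or amoxicillin) combined with an antifungal against S. cerevisiae and C. glabrata isolates. Growth was read as OD600 after incubation at 37 °C (48 h for the reported MICs). Reported quantities are the FICI (Loewe: MIC50 for azoles and immunomodulators, MIC90 for AMB; ≤0.5 synergy, ≥4 antagonism), as minimum and maximum over the surface, and the Bliss-independence sum of statistically significant ΔE (positive = synergy). Clinical isolates were tested in RPMI; C. glabrata ATCC 2001 and its pdr1Δ mutant were tested in YPD.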

[2] = tested on: Candida glabrata ZIM 2385 (RPMI); test: as above
Protocol: as §1

[3] = tested on: Candida glabrata ZIM 2365 (RPMI); test: as above
Protocol: as §1

[4] = tested on: Saccharomyces cerevisiae ZIM 2558 (RPMI); test: as above
Protocol: as §1

[5] = tested on: Saccharomyces cerevisiae ZIM 2269 (RPMI); test: as above
Protocol: as §1

[6] = tested on: Saccharomyces cerevisiae ZIM 2566 (RPMI); test: as above
Protocol: as §1

[7] = tested on: Candida glabrata ZIM 2382 (RPMI); test: as above
Protocol: as §1

[8] = tested on: Candida glabrata ZIM 2389 (RPMI); test: as above
Protocol: as §1

[9] = tested on: Candida glabrata ZIM 2344 (RPMI); test: as above
Protocol: as §1

[10] = tested on: Candida glabrata ZIM 2369 (RPMI); test: as above
Protocol: as §1

[11] = tested on: Saccharomyces cerevisiae ZIM 2260 (RPMI); test: as above
Protocol: as §1

[12] = tested on: Saccharomyces cerevisiae ZIM 2255 (RPMI); test: as above
Protocol: as §1

[13] = tested on: Saccharomyces cerevisiae ZIM 2247 (RPMI); test: Bliss independence sum of statistically significant ΔE (measured minus predicted growth inhibition) over checkerboard surface (fraction (sum of ΔE; 1 = 100%)); higher = more synergy
[14] = tested on: Candida glabrata ZIM 2385 (RPMI); test: as above
[15] = tested on: Candida glabrata ZIM 2365 (RPMI); test: as above
[16] = tested on: Saccharomyces cerevisiae ZIM 2558 (RPMI); test: as above
[17] = tested on: Saccharomyces cerevisiae ZIM 2269 (RPMI); test: as above
[18] = tested on: Saccharomyces cerevisiae ZIM 2566 (RPMI); test: as above
[19] = tested on: Candida glabrata ZIM 2382 (RPMI); test: as above
[20] = tested on: Candida glabrata ZIM 2389 (RPMI); test: as above
[21] = tested on: Candida glabrata ZIM 2344 (RPMI); test: as above
[22] = tested on: Candida glabrata ZIM 2369 (RPMI); test: as above
[23] = tested on: Saccharomyces cerevisiae ZIM 2260 (RPMI); test: as above
[24] = tested on: Saccharomyces cerevisiae ZIM 2255 (RPMI); test: as above
[25] = tested on: Candida glabrata ZIM 2369 (RPMI); test: FICI maximum (fractional inhibitory concentration index, Loewe) (dimensionless); higher = less synergy / more antagonism
Protocol: as §1

[26] = tested on: Saccharomyces cerevisiae ZIM 2255 (RPMI); test: as above
Protocol: as §1

| SMILES | FICI minimum [1] | FICI minimum [2] | FICI minimum [3] | FICI minimum [4] | FICI minimum [5] | FICI minimum [6] | FICI minimum [7] | FICI minimum [8] | FICI minimum [9] | FICI minimum [10] | FICI minimum [11] | FICI minimum [12] | Bliss independence sum [13] | Bliss independence sum [14] | Bliss independence sum [15] | Bliss independence sum [16] | Bliss independence sum [17] | Bliss independence sum [18] | Bliss independence sum [19] | Bliss independence sum [20] | Bliss independence sum [21] | Bliss independence sum [22] | Bliss independence sum [23] | Bliss independence sum [24] | FICI maximum [25] | FICI maximum [26] |
| --- | --- | --- | --- | --- | --- | --- | --- | --- | --- | --- | --- | --- | --- | --- | --- | --- | --- | --- | --- | --- | --- | --- | --- | --- | --- | --- |
| CC1(C)S[C@@H]2[C@H](NC(=O)[C@H](N)c3ccc(O)cc3)C(=O)N2[C@H]1C(=O)O [amoxicillin] + CCC(C)n1ncn(-c2ccc(N3CCN(c4ccc(OCC5COC(Cn6cncn6)(c6ccc(Cl)cc6Cl)O5)cc4)CC3)cc2)c1=O [itraconazole] | 0.508 | 1.01 | 0.562 | 0.508 | 1 | 1.01 | 1.01 | 1.01 | 0.0703 | 1.01 | 1.01 | 1.01 | -3.04 | -0.894 | 3.78 | 0.394 | 0.212 | -0.787 | -0.629 | 0.79 | 3 | 0.313 | 0.613 | 0.234 | 1.25 | 1.25 |
| CC1(C)S[C@@H]2[C@H](NC(=O)[C@H](N)c3ccc(O)cc3)C(=O)N2[C@H]1C(=O)O [amoxicillin] + C[C@@H]1[C@H](O)[C@@H](C)/C=C/C=C/C=C/C=C/C=C/C=C/C=C/[C@H](O[C@@H]2O[C@H](C)[C@@H](O)[C@H](N)[C@@H]2O)C[C@@H]2O[C@](O)(C[C@@H](O)C[C@@H](O)[C@H](O)CC[C@@H](O)C[C@@H](O)CC(=O)O[C@H]1C)C[C@H](O)[C@H]2C(=O)O [amphotericin B] | 1.01 | 0.508 | 0.258 | 2.02 | 1.01 | 0.562 | 0.508 | 0.508 | 0.133 | 1.01 | 1.01 | 1.01 | -2.91 | 2.19 | 2.12 | -2.25 | 2.97 | -0.244 | 0.631 | 2.34 | 1.9 | -0.462 | 0.295 | -2.26 | 1.25 | 1.25 |
| CN(Cc1cnc2nc(N)nc(N)c2n1)c1ccc(C(=O)N[C@@H](CCC(=O)O)C(=O)O)cc1 [methotrexate] + CCC(C)n1ncn(-c2ccc(N3CCN(c4ccc(OCC5COC(Cn6cncn6)(c6ccc(Cl)cc6Cl)O5)cc4)CC3)cc2)c1=O [itraconazole] | 0.505 | 0.505 | 0.505 | 0.656 | 1 | 1 | 1 | 1 | 1 | 1 | 1.08 | 1 | 0.35 | -0.777 | 2.18 | 1.01 | -0.796 | 1.34 | -1.18 | 0.179 | -0.688 | -0.495 | -0.71 | 1.41 | 1.16 | 1.08 |
| CN(Cc1cnc2nc(N)nc(N)c2n1)c1ccc(C(=O)N[C@@H](CCC(=O)O)C(=O)O)cc1 [methotrexate] + C[C@@H]1[C@H](O)[C@@H](C)/C=C/C=C/C=C/C=C/C=C/C=C/C=C/[C@H](O[C@@H]2O[C@H](C)[C@@H](O)[C@H](N)[C@@H]2O)C[C@@H]2O[C@](O)(C[C@@H](O)C[C@@H](O)[C@H](O)CC[C@@H](O)C[C@@H](O)CC(=O)O[C@H]1C)C[C@H](O)[C@H]2C(=O)O [amphotericin B] | 1 | 2 | 1 | 1 | 1 | 1 | 1 | 1 | 0.656 | 1 | 1 | 0.516 | -2.39 | -1.71 | -0.0967 | -1.12 | 0.225 | -3.15 | -0.569 | -2.52 | 1.26 | 0.0762 | 2 | 0.262 | 1.16 | 1.5 |
| CN(Cc1cnc2nc(N)nc(N)c2n1)c1ccc(C(=O)N[C@@H](CCC(=O)O)C(=O)O)cc1 [methotrexate] + OC(Cn1cncn1)(Cn1cncn1)c1ccc(F)cc1F [fluconazole] | 1 | 1 | 1 | 0.406 | 0.656 | 1 | 1 | 0.505 | 0.505 | 1 | 1.01 | 1 | -0.857 | -0.819 | 0.394 | 8.35 | -1.86 | -4.52 | -1.36 | 0.272 | 1.94 | 0.22 | -0.0461 | -0.754 | 1.16 | 1.08 |
